According to US7012089B2, “[1,4]Diazocino[7,8,1-hi]indole derivatives as antipsychotic and antiobesity agents” (Wyeth, priority 2002, dated 2006):
Structures can show the parent of a compound that is named as a salt. Where two headings read alike, the source gives them in different places.

Experiments:
[1] = molecular target: T1, human 5-hydroxytryptamine-2C (h-5-HT2C) receptor (Homo sapiens, UniProt P28335); experiment: [125I]DOI binding to membranes of CHO cells expressing the h-5-HT2C receptor
T1 sequence (P28335 33-458): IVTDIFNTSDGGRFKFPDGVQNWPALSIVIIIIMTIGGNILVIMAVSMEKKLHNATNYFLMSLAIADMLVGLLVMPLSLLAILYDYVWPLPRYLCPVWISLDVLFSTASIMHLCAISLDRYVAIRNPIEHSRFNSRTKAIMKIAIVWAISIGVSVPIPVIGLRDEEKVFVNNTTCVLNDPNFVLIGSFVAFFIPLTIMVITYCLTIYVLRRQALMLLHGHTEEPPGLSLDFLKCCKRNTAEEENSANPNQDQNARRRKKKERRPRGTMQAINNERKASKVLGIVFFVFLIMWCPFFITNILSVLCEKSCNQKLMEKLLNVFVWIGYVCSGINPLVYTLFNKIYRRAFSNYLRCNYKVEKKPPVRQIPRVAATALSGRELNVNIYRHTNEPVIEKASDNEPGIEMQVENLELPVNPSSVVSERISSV

human 5-HT2C receptor = molecular target: T2, human 5-HT2C receptor (Homo sapiens, UniProt P28335); experiment: 5-HT2C receptor-stimulated calcium mobilization (FLIPR) in CHO cells; assay type: cell-based; details: for Emax: CHO, read-out: 5-HT2C Function Emax (%)
T2 sequence (P28335 33-458): T1 sequence (P28335 33-458)

[2] = 5-HT2c Affinity KI (nM), displacement of [125I]DOI, CHO cell membranes

Row | Structure (SMILES) | melting point [°C] | also measured
1 | CN1CCc2ccc(F)c3c2N(CC1)C1CCCCC31 (stereo not shown) (as salt: fumarate) [Example 27, 8-Fluoro-3-methyl-2,3,4,5,8b,9,10,11,12,12a-decahydro-1H-[1,4]diazocino[7,8,1-jk]carbazole] | 168 to 170 | 
2 | Fc1ccc2c3c1c1c(n3CCNCC2)CCC1 (as salt: fumarate) [Example 28, 8-Fluoro-2,3,4,5,10,11-hexahydro-1H,9H-cyclopenta[b][1,4]diazocino[7,8,1-hi]indole] | 199 to 200 | 
3 | Fc1ccc2c3c1c1c(n3CCNCC2)CCCC1 (as salt: fumarate) [Example 29, 8-Fluoro-2,3,4,5,9,10,11,12-octahydro-1H-[1,4]diazocino[7,8,1-jk]carbazole] | 177 to 179 | 
4 | Fc1ccc2c3c1C1CCCC1N3CCNCC2 (stereo not shown) (as salt: fumarate) [Example 30, 8-Fluoro-2,3,4,5,9,10,11,11a-octahydro-1H,8bH-cyclopenta[b][1,4]diazocino[7,8,1-hi]indole] | 169 to 170 | 
5 | Fc1ccc2c3c1C1CCCCC1N3CCNCC2 (stereo not shown) (as salt: fumarate) [Example 31, 8-Fluoro-2,3,4,5,8b,9,10,11,12,12a-decahydro-1H[1,4]diazocino[7,8,1-jk]carbazole] | 189 to 190 | 
6 | CN1CCc2ccc(Cl)c3c4c(n(c23)CC1)CCC4 (as salt: fumarate) [Example 34, 8-Chloro-3-methyl-2,3,4,5,10,11-hexahydro-1H,9H-cyclopenta[b][1,4]diazocino[7,8,1-hi]indole] | 209 to 211 | 
7 | CN1CCc2ccc(Cl)c3c4c(n(c23)CC1)CCCC4 (as salt: fumarate) [Example 35, 8-Chloro-3-methyl-2,3,4,5,9,10,11,12-octahydro-1H-[1,4]diazocino[7,8,1-jk]carbazole] | 212 to 214 | 
8 | CN1CCc2ccc(Cl)c3c2N(CC1)C1CCCC31 (stereo not shown) (as salt: fumarate) [Example 36, 8-Chloro-3-methyl-2,3,4,5,9,10,11,11a-octahydro-1H,8bH-cyclopenta[b][1,4]diazocino[7,8,1-hi]indole] | 179 to 181 | 
9 | CN1CCc2ccc(Cl)c3c2N(CC1)C1CCCCC31 (stereo not shown) (as salt: fumarate) [Example 37, 8-Chloro-3-methyl-2,3,4,5,8b,9,10,11,12,12a-decahydro-1H-[1,4]diazocino[7,8,1-jk]carbazole] | 178 to 180 | 
10 | Clc1ccc2c3c1c1c(n3CCNCC2)CCC1 (as salt: fumarate) [Example 38, 8-Chloro-2,3,4,5,10,11-hexahydro-1H,9H-cyclopenta[b][1,4]diazocino[7,8,1-hi]indole] | 226 to 228 | 
11 | Clc1ccc2c3c1c1c(n3CCNCC2)CCCC1 (as salt: fumarate) [Example 39, 8-Chloro-2,3,4,5,9,10,11,12-octahydro-1H-[1,4]diazocino[7,8,1-jk]carbazole] | 199 to 201 | 
12 | Clc1ccc2c3c1C1CCCC1N3CCNCC2 (stereo not shown) (as salt: fumarate) [Example 40, 8-Chloro-2,3,4,5,9,10,11,11a-octahydro-1H,8bH-cyclopenta[b][1,4]diazocino[7,8,1-hi]indole] | 169 to 170 | 
13 | Clc1ccc2c3c1C1CCCCC1N3CCNCC2 (stereo not shown) (as salt: fumarate) [Example 41, 8-Chloro-2,3,4,5,8b,9,10,11,12,12a-decahydro-1H-[1,4]diazocino[7,8,1-jk]carbazole] | 199 to 200 | 
14 | CN1CCc2cccc3c2N(CC1)C1CCSCC31 (stereo not shown) (as salt: fumarate) [Example 44, 3-Methyl-2,3,4,5,9,10,11,12-octahydro-1H,9H-[1,4]diazocino[7,8,1-hi]thiopyrano[4,3-b]indole] | 187 to 189 | 
15 | c1cc2c3c(c1)C1CCCC1N3CCNCC2 (stereo not shown) (as salt: hydrochloride) [Example 4, 2,3,4,5,9,10,11,11a-Octahydro-1H,8bH-cyclopenta[b][1,4]diazocino[7,8,1-hi]indole] | 137 to 140 | 
16 | Fc1ccc2c3c1[C@H]1CCCC[C@H]1N3CCNCC2 (single isomer, unassigned) (as salt: fumarate) [Example 32, (+)-(8bR*,12aR*)-8-Fluoro-2,3,4,5,8b,9,10,11,12,12a-decahydro-1H-[1,4]diazocino[7,8,1-jk]carbazole] | > 130 | 
17 | Fc1ccc2c3c1[C@H]1CCCC[C@H]1N3CCNCC2 (single isomer, unassigned) (as salt: fumarate) [Example 33, (−)-(8bR*,12aR*)-8-Fluoro-2,3,4,5,8b,9,10,11,12,12a-decahydro-1H-[1,4]diazocino[7,8,1-jk]carbazole] | 94 to 96 | 
18 | Clc1ccc2c3c1[C@H]1CCCC[C@H]1N3CCNCC2 (single isomer, unassigned) (as salt: fumarate) [Example 42, (+)-(8bR*,12aR*)-8-Chloro-2,3,4,5,8b,9,10,11,12,12a-decahydro-1H-[1,4]diazocino[7,8,1-jk]carbazole] | 170 to 173 | 
19 | Clc1ccc2c3c1[C@H]1CCCC[C@H]1N3CCNCC2 (single isomer, unassigned) (as salt: fumarate) [Example 43, (−)-(8bR*,12aR*)-8-Chloro-2,3,4,5,8b,9,10,11,12,12a-decahydro-1H-[1,4]diazocino[7,8,1-jk]carbazole] | 168 to 171 | 
20 | c1cc2c3c(c1)[C@H]1CCCC[C@H]1N3CCNCC2 (single isomer, unassigned) (as salt: fumarate) [Example 47, (+)-(8bR*,12aR*)-2,3,4,5,8b,9,10,11,12,12a-Decahydro-1H-[1,4]diazocino[7,8,1-jk]carbazole] | 139 to 140 | 
21 | c1cc2c3c(c1)[C@H]1CCC[C@H]1N3CCNCC2 (single isomer, unassigned) (as salt: hydrochloride) [Example 45, (+)-(8bR*,11aR*)-2,3,4,5,9,10,11,11a-Octahydro-1H,8bH-cyclopenta[b][1,4]diazocino[7,8,1-hi]indole] | > 130 | 
22 | CN1CCc2cccc3c4c(n(c23)CC1)CCC4 [Example 1, 3-Methyl-2,3,4,5,10,11-hexahydro-1H,9H-cyclopenta[b][1,4]diazocino[7,8,1-hi]indole] | 128 to 130 | Ki [1, 2]: 35 nM; EC50 (human 5-HT2C receptor): 48 nM; Emax (human 5-HT2C receptor): 45%
23 | CN1CCc2cccc3c4c(n(c23)CC1)CCCC4 [Example 5] | 129 to 131 | Ki [1, 2]: 10 nM; EC50 (human 5-HT2C receptor): 68 nM; Emax (human 5-HT2C receptor): 50%
24 | CN1CCc2cccc3c4c(n(c23)CC1)CCSC4 [Example 11, 3-Methyl-2,3,4,5,11,12-hexahydro-1H,9H-[1,4]diazocino[7,8,1-hi]thiopyrano[4,3-b]indole] | 123 to 125 | Ki [1, 2]: 38 nM
25 | CN1CCc2c(Cl)ccc3c4c(n(c23)CC1)CCC4 [Example 12, 6-Chloro-3-methyl-2,3,4,5,10,11-hexahydro-1H,9H-cyclopenta[b][1,4]diazocino[7,8,1-hi]indole] | 138 to 140 | Ki ([1]; read-out: 5-HT2c Affinity KI): 250 nM
26 | CN1CCc2c(Cl)ccc3c4c(n(c23)CC1)CCCC4 [Example 13, 6-Chloro-3-methyl-2,3,4,5,9,10,11,12-octahydro-1H-[1,4]diazocino[7,8,1-jk]carbazole] | 128 to 130 | Ki [1, 2]: 34 nM
27 | CN1CCc2c(Cl)ccc3c4c(n(c23)CC1)CCCCC4 [Example 14, 6-Chloro-3-methyl-2,3,4,5,10,11,12,13-octahydro-1H,9H-cyclohepta[b][1,4]diazocino[7,8,1-hi]indole] | 132 to 134 | Ki ([1]; read-out: 5-HT2c Affinity KI): 250 nM
